From BindingDB's records for doi:10.1016/j.bioorg.2016.12.011 (University of Karachi, 2017)

Target: T1, Beta-glucuronidase (Bos taurus, UniProt A3KMY8)
T1 sequence (A3KMY8 whole entry): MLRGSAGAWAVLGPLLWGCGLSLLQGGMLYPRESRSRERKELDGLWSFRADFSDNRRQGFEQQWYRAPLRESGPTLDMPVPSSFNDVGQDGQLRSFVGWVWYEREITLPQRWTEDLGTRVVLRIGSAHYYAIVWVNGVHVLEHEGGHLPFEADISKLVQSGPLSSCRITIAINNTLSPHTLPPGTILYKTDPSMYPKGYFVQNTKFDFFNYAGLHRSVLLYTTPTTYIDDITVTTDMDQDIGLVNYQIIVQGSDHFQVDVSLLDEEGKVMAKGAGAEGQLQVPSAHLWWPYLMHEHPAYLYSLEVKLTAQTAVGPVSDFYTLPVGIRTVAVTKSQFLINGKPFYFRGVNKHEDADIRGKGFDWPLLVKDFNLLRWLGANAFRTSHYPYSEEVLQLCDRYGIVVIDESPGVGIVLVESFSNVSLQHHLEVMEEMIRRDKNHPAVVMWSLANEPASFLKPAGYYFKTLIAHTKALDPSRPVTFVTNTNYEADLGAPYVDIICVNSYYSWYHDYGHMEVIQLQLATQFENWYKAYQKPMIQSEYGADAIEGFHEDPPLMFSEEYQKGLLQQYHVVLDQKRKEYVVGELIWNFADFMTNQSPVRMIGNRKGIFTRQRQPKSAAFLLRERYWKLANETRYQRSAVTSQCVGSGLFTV
Assay: β-Glucuronidase Inhibition Assay
Protocol: Total volume of reaction was 250 μL. […] Reaction mixture comprised of 0.1 M acetate buffer (185 μL), test compound solution in DMSO (5 μL), enzyme solution (10 μL), was incubated for 30 min at 37 °C. […] All assays were run in triplicate.

| SMILES | IC50 [µM] |
| --- | --- |
| C(=N\Nc1nc(-c2ccc(-c3ccccc3)cc2)cs1)/c1ccc2ccc3cccc4ccc1c2c34 [(E)-4-([1,10-Biphenyl]-4-yl)-2-(2-(pyren-1-ylmethylene)hydrazinyl)thiazole (5)] | 36.1 |
| NC(=S)N/N=C/c1ccc2ccc3cccc4ccc1c2c34 [(E)-2-(Pyren-1-ylmethylene)hydrazine-1-carbothioamide (2)] | 5.5 |
| Cc1ccc(-c2csc(N/N=C/c3ccc4ccc5cccc6ccc3c4c56)n2)cc1 [(E)-2-(2-(Pyren-1-ylmethylene)hydrazinyl)-4-(p-tolyl)thiazole (4)] | 40.1 |
| Clc1ccc(-c2csc(C/C=C/c3ccc4ccc5cccc6ccc3c4c56)n2)cc1 [(E)-4-(4-Chlorophenyl)-2-(3-(pyren-1-yl)allyl)thiazole (10)] | 11.1 |
| COc1ccc(-c2csc(N/N=C/c3ccc4ccc5cccc6ccc3c4c56)n2)cc1 [(E)-4-(4-Methoxyphenyl)-2-(2-(pyren-1-ylmethylene)hydrazinyl)thiazole (3)] | 24.4 |
